From PubChem BioAssay (NCI)
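Cultured in 96-well plates, cells were exposed to test compound for 48 hours across five concentrations. Abbreviation: GI50, concentration required for 50% inhibition of growth. TGI is the concentration that stops growth completely.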

How the values were obtained:
Assay in all cases: NCI tumour cell line growth inhibition, 48 h
786-0 renal = test system: 786-0 renal
A498 renal = test system: A498 renal
A549 NSCLC = test system: A549 NSCLC
ACHN renal = test system: ACHN renal
BT-549 breast = test system: BT-549 breast
CAKI-1 renal = test system: CAKI-1 renal
CCRF-CEM leukemia = test system: CCRF-CEM leukemia
COLO 205 colon = test system: COLO 205 colon
DU-145 prostate = test system: DU-145 prostate
EKVX NSCLC = test system: EKVX NSCLC
HCC-2998 colon = test system: HCC-2998 colon
HCT-116 colon = test system: HCT-116 colon
HCT-15 colon = test system: HCT-15 colon
HL-60(TB) leukemia = test system: HL-60(TB) leukemia
HOP-62 NSCLC = test system: HOP-62 NSCLC
HOP-92 NSCLC = test system: HOP-92 NSCLC
HS 578T breast = test system: HS 578T breast
HT29 colon = test system: HT29 colon
IGROV1 ovarian = test system: IGROV1 ovarian
K-562 leukemia = test system: K-562 leukemia
KM12 colon = test system: KM12 colon
LOX IMVI melanoma = test system: LOX IMVI melanoma
M14 melanoma = test system: M14 melanoma
MALME-3M melanoma = test system: MALME-3M melanoma
MCF7 breast = test system: MCF7 breast
MDA-MB-231 breast = test system: MDA-MB-231 breast
MDA-MB-435 = test system: MDA-MB-435
MDA-MB-468 breast = test system: MDA-MB-468 breast
MOLT-4 leukemia = test system: MOLT-4 leukemia
NCI-H226 lung = test system: NCI-H226 lung

CC1=C(c2cc(-c3ccc(Cl)cc3)c(C#N)c(N)n2)C(c2ccccc2)NC(=S)N1 (stereo not drawn)
GI50 (786-0 renal): 16.3 µM | TGI (786-0 renal): 35.4 µM | GI50 (A498 renal): > 44.5 µM | TGI (A498 renal): > 62.8 µM | GI50 (A549 NSCLC): 48.8 µM | TGI (A549 NSCLC): > 88 µM | GI50 (ACHN renal): 15.5 µM | TGI (ACHN renal): 30.9 µM | GI50 (BT-549 breast): 14.1 µM | TGI (BT-549 breast): 29.5 µM | GI50 (CAKI-1 renal): 16.5 µM | TGI (CAKI-1 renal): 43.9 µM | GI50 (CCRF-CEM leukemia): 0.303 µM | TGI (CCRF-CEM leukemia): 16.9 µM | GI50 (COLO 205 colon): 17 µM | TGI (COLO 205 colon): 33.5 µM | GI50 (DU-145 prostate): 13.1 µM | TGI (DU-145 prostate): 29.3 µM | GI50 (EKVX NSCLC): 16.4 µM | TGI (EKVX NSCLC): 42.6 µM | GI50 (HCC-2998 colon): 13.4 µM | TGI (HCC-2998 colon): 26.4 µM | GI50 (HCT-116 colon): 0.147 µM | TGI (HCT-116 colon): 17.6 µM | GI50 (HCT-15 colon): 0.171 µM | TGI (HCT-15 colon): 18.2 µM | GI50 (HL-60(TB) leukemia): 0.168 µM | GI50 (HOP-62 NSCLC): 16 µM | TGI (HOP-62 NSCLC): 37 µM | GI50 (HOP-92 NSCLC): 19.1 µM | TGI (HOP-92 NSCLC): 62.7 µM | GI50 (HS 578T breast): 19.1 µM | TGI (HS 578T breast): > 96.2 µM | GI50 (HT29 colon): 12.2 µM | TGI (HT29 colon): 27.6 µM | GI50 (IGROV1 ovarian): 17.2 µM | TGI (IGROV1 ovarian): 36.4 µM | GI50 (K-562 leukemia): 0.277 µM | TGI (K-562 leukemia): > 100 µM | GI50 (KM12 colon): 16.9 µM | TGI (KM12 colon): 35.5 µM | GI50 (LOX IMVI melanoma): 1.34 µM | TGI (LOX IMVI melanoma): 14.4 µM | GI50 (M14 melanoma): 3.33 µM | TGI (M14 melanoma): 25.4 µM | GI50 (MALME-3M melanoma): 14 µM | TGI (MALME-3M melanoma): 32.1 µM | GI50 (MCF7 breast): 0.177 µM | TGI (MCF7 breast): 28.5 µM | GI50 (MDA-MB-231 breast): 13.6 µM | TGI (MDA-MB-231 breast): 29.6 µM | GI50 (MDA-MB-435): 7.44 µM | TGI (MDA-MB-435): 30.3 µM | GI50 (MDA-MB-468 breast): 8.45 µM | TGI (MDA-MB-468 breast): 22.7 µM | GI50 (MOLT-4 leukemia): 1.37 µM | TGI (MOLT-4 leukemia): > 66.2 µM | GI50 (NCI-H226 lung): 15.8 µM
